Test results published in patent publication US20230263749A1, “COMPOSITIONS AND METHODS FOR IMPROVING NEUROLOGICAL DISEASES AND DISORDERS” (CuraSen Therapeutics, Inc., priority 2020, published 2023).
Entries after “also recorded” stand apart in the source; their conditions may differ.

Assays:
Type in all cases: in vivo, human
[1] = tested on: healthy subjects; test: Heart rate by triplicate ECG after Compound 03-5 with or without nadolol pre-administration
Description: Heart rate was measured by triplicate ECG recordings. Data are presented as means changes from time-matched measures recorded on the day before the first dose of study drug (Day −1).
Healthy volunteers were be enrolled into 2 cohorts in a study to undertake within-subject dose titration of Compound 03-5 and/or nadolol in order to explore doses/dose combinations that mitigate peripheral effects of Compound 03-5, e.g. on heart rate, while preserving possible central effects of Compound 03-5 on cerebral perfusion and pupillary light reflex.
Cohort D1 enrolled 8 healthy subjects and undertook an evaluation of the effects of treatment on ECG following repeat dosing of Compound 03-5 in the presence of escalating doses of nadolol according to following schematic.
Eight healthy subjects aged 18-50 years were enrolled into Cohort D1 and received escalating doses of Compound 03-5 (3-12 mg) administered once daily 2 hours follow pre-administration of nadolol (1-40 mg). On all dosing days, study drug(s) were administered orally after an overnight fast of at least 8 hours.
(§1) Routine measures of ECG, vital signs, safety labs, physical exams and plasma sample collections for analysis of drug pharmacokinetics (PK) were undertaken according to the Schedule of Events (Table 1).
(§2) In Cohort D2, 8 healthy volunteers aged 55-75 years were admitted on Day −1 for a 5-day confinement period at the research facility. During this confinement, subjects received escalating doses of open label Compound 03-5 (1-10 mg) once-daily from Day 1 through Day 3 2 hours after pre-administration of open-label nadolol (3 mg) one each for the 3 dosing days according to the following schematic. Subjects remained in-residency until all study procedures are completed on Day 4.

[2] = tested on: healthy subjects; test: Blood potassium, glucose and other peripheral effects of Compound 03-5 with or without nadolol
Text: Data are presented as individual observations for all available subjects.
as §1

[3] = tested on: healthy volunteers aged 55-75 years; test: CANTAB cognition battery, Cohort D2; conditions: Compound 03-5 1, 3 and 10 mg once daily, 2 h after 3 mg nadolol, change from within-day pre-dose
Description: CANTAB data from healthy adults 55-75 years of age (N=4) who received once-daily 3 mg nadolol and Compound 03-5 (1, 3, and 10 mg) on Day 1, Day 2 and Day 3. […] Data are presented as mean changes from the within-day pre-dose assessment.
In some embodiments, cognition may be evaluated using the Cambridge Neuropsychological Test Automated Battery (CANTAB) assessment (see, for example, Sahakian, et al., (1988). Brain. 111 (3): 695-718). Cognitive domains, such as attention, visuospatial working memory, episodic memory, speed of process and executive function can be assessed using the CANTAB Battery Test, which includes the following: • Reaction Time (RTI), • Paired Associates Learning (PAL), • Verbal Recognition Memory (VRM) Immediate Free Recall, • Rapid Visual Information Processing (RVP), • Spatial Working Memory (SWM), • Adaptive Tracking, and • VRM Delayed Free recall and Forced-Choice Recognition.
as §2

[4] = tested on: patients; test: Cerebral blood flow relative to baseline after a single dose in patients (Example 1)
[5] = tested on: healthy subjects; test: ASL MRI cerebral perfusion before and after a single dose in healthy subjects (Example 3)
Description: The data are plotted as change from baseline in cerebral blood flow in different regions of the brain.
Six healthy subjects aged 44-52 were treated with a single dose of […]. The Baseline vs. post-dose paired t-tests results: p=0.019. The color scale is shown in the middle and indicates cerebral blood flow with low values in red and high values in yellow.
In a clinical study, healthy subjects were administered doses of clenbuterol ranging from 20 to 160 μg and ASL MM was conducted prior to and after dosing with an objective to ascertain whether this neuroimaging method enables the detection of a clinically relevant CNS signal.
In a region of interest (ROI) analysis focusing on the hippocampus, which is well understood to be affected in neurodegenerative disorders, a single dose of 80 μg of clenbuterol causes a robust increase in perfusion (see FIG. 7). […] Taken together with other cohorts in which ASL MM was conducted, a clear dose response relationship is seen between dose of clenbuterol and cerebral perfusion (FIG. 8). […] Our hypothesis is that by improving cerebral perfusion, particularly in areas of the brain that are relevant for symptoms that are commonly found in neurodegenerative diseases such as PD and AD, the administration of a β-AR agonist (such as a β-agent) will have a positive effect on clinically relevant symptoms such as memory and cognition.

[6] = tested on: healthy subjects; test: Adaptive tracking test (visuomotor coordination and vigilance); conditions: single dose of 160 μg clenbuterol
Text: Adaptive tracking measures visuomotor coordination and vigilance. In this test, the subject uses a joystick to move a small dot so that it stays within a continuously moving circle on a computer screen (Boland 1984). During the test, the speed of the circle is adjusted in response to the subject's ability to keep the dot in the circle, ensuring that the test is adapted to the individual subject. […] The improvement shown by subjects is in the same range as that seen with subjects treated with the acetylcholinesterase inhibitor donepezil, which is in clinical use for the treatment of mild to moderate AD (Groeneveld 2016).

[7] = tested on: subjects; test: Visual verbal learning test (VVLT); conditions: crossover study, Part A
Description: Subjects are presented 30 words on a screen, one at a time, for 1 second with a 1-second interval between words over a total of 1 minute. This is repeated in 3 trials. After each trial, subjects are asked to recall as many words as they can. After the third trial, there is a delay of 2.5 hours and subjects are then tested once for delayed recall. […] Since this was a crossover study, everyone who completed Part A was dosed with the 3 agents plus placebo.

[8] = clenbuterol doses of 80 and 160 μg

Q: `CC(C)(C)NC[C@H](O)c1cccc(C#N)n1` [Compound 03-5, (S)-6-(2-(tert-butylamino)-1-hydroxyethyl)picolinonitrile] was tested. Which “mean maximum increase in heart rate” value ([1]; 6 mg Compound 03-5 after pre-administration of 1 mg nadolol) did it give?
A: 7 beats per minute

Q: What about the “hypokalemia (blood potassium levels)” value ([2]; Compound 03-5 monotherapy 0.3 mg-6 mg, Cohorts A1-A5) of the same compound?
A: Dose-dependent increases in hypokalemia

Q: What about the “performance in the CANTAB cognition battery” value [3] of the same compound?
A: improvements in performance in the CANTAB cognition battery

Q: Which “cerebral blood flow (CBF) relative to baseline” value ([4]; single dose of clenbuterol 160 μg) does the source give for `CC(C)(C)NCC(O)c1cc(Cl)c(N)c(Cl)c1` (stereo not shown) [clenbuterol] here?
A: robust global increase in cerebral blood flow; also recorded: positive increase in cerebral blood flow

Q: What about the “cerebral blood flow (CBF) relative to baseline” value ([4]; single dose of clenbuterol 160 μg and nadolol 5 mg) of the same compound?
A: robust global increase in cerebral blood flow

Q: And the “cerebral blood flow (CBF) relative to baseline” value ([4]; single dose of clenbuterol ranging from 30 to 160 μg, tracked over 3 days)?
A: robust global increase in cerebral blood flow

Q: And the “increase in hippocampal perfusion, on average” value ([5]; 6 healthy subjects aged 44 to 52, single dose of 80 μg clenbuterol, hippocampus ROI)?
A: 25%

Q: What about the “cerebral perfusion increase as measured by CBF” value ([5]; clenbuterol dose of 40 μg) of the same compound?
A: minimal increase

Q: What about the “cerebral perfusion increase as measured by CBF” value ([5]; clenbuterol doses below 30 μg) of the same compound?
A: do not produce significant cerebral perfusion increases

Q: What about the “global perfusion (ASL MRI)” value [5, 8] of the same compound?
A: robust, global increase in perfusion

Q: What about the “improvement in perfusion in brain areas relevant to the neuropathology of neurodegenerative disorders” value [5, 8] of the same compound?
A: ~25%

Q: And the “cerebral perfusion (ASL MRI)” value ([5]; healthy subjects, single dose of 160 μg clenbuterol)?
A: robust global increase in cerebral perfusion

Q: And the “cognition as measured by adaptive tracking and word recall” value ([6]; healthy subjects, preliminary data)?
A: improves cognition

Q: And the “performance in adaptive tracking (percent time dot kept within moving circle)” value [6]?
A: improved adaptive tracking; also recorded: performance in adaptive tracking improves

Q: What about the “effect on the VVLT” value [7] of the same compound?
A: positive effects

Q: Which results are given for `CC(C)(C)NCC(O)COc1cccc2c1CC(O)C(O)C2` (stereo not shown) [nadolol]?
A: effect of nadolol on peripheral effects of Compound 03-5 on heart rate, glucose, potassium, tachycardia, tremor and palpitations ([1]; Cohort D1, pre-administered nadolol 1 mg up to 40 mg, Compound 03-5 3-12 mg): blocked the peripheral effects; effect of nadolol on Compound 03-5 increase in heart rate and other peripheral effects including hyperglycemia and hypokalemia ([1]; Cohort D1, pre-administration of 1 mg nadolol, Compound 03-5 orally up to 6 mg): substantially attenuated; effect of nadolol on peripheral effects of Compound 03-5 on heart rate, etc. ([1]; Cohort D2, pre-administered nadolol 3 mg, Compound 03-5 1-10 mg): similarly blocked the peripheral effects; effect of nadolol on Compound 03-5 hypokalemia ([2]; nadolol 1-40 mg, Cohorts D1 and D2): attenuation of hypokalemia; effect of nadolol on effects of Compound 03-5 on blood glucose and potassium, tachycardia, tremor and palpitations ([2]; pre-administration of 1 mg nadolol, 6 mg Compound 03-5): Concomitant attenuation

Q: `CC(C)NCC(O)COc1cccc2[nH]ccc12` (stereo not shown) [pindolol] was tested. Which “effect on the VVLT” value [7] did it give?
A: detrimental effect

Q: For `CC(C)(C)NCC(O)c1ccc(O)c(CO)c1` (stereo not shown) [salbutamol], which “effect on the VVLT” value [7] is on record?
A: positive effects
